Data taken from patent US20210299022A1, “COMPOSITION FOR THE TREATMENT OF NAIL FUNGUS” (Oystershell NV, priority 2020, published 2021).

Assays:
[1] = tolerance of fluorescent whitening agent upon nails; assay type: in vivo; conditions: applied upon nails
Source text: In a preferred embodiment, the composition according to the invention includes 2,5-bis(5-tert-butyl-benzoxazol-2-yl)thiophene as fluorescent whitening agent. 2,5-bis(5-tert-butyl-benzoxazol-2-yl)thiophene is known as FWA-184 and has CAS No: [7128-64-5].

[2] = stability of optical brightener in the composition; assay type: physicochemical; conditions: in composition of example 1
Source text: FWA-184, also known as OB-184 or 2,5′-Bis[2-(5-tert-buty 1-2 benzoxazoly)thiophene is an optical brightener known for polymers, paints and detergents. It's suitable for use in polymers which come into contact with keratinous tissue and skin. Furthermore, it is stable in the present composition. […] It is important that the film-forming polymer is transparent to both visible ranges as well as the wavelengths which are absorbed by the fluorescent whitening agent.

In the case of CC(C)(C)c1ccc2oc(-c3ccc(-c4nc5cc(C(C)(C)C)ccc5o4)s3)nc2c1 [FWA-184, 2,5-bis(5-tert-butyl-benzoxazol-2-yl)thiophene], the tolerance upon nails [1] is reported as “well tolerated” and the “stability in the present composition” value [2] is reported as “stable”.
